Results on two compounds are retold here after patent US20050165112A1, “Therapeutic agent for inflammatory intestinal diseases containing hydroxamic acid compound as active ingredient” (priority 2002, published 2005).

What all share (format): in vivo
For series [1], the system named is acetic acid-induced colitis in male SD (CD) IGS rats. Nature of the series: Acetic acid-induced colitis model. The settings on record: rat, 0.3 or 3 mg/kg/day, 24 hours after colitis induction. As for the experimental part:
Male SD (CD) IGS rats (7 weeks old) were anesthetized with sodium pentobarbital. Colitis was induced by intracolonic instillation of 0.25 mL of 5% acetic acid with a disposable sonde for oral administration for mouse, which is attached to 1 mL syringe (Terumo). The sonde was inserted to 5 cm from anus and acetic acid was infused for 10 seconds. After the removal of the sonde, the anus was plugged for 1 minute. Then the colon was washed with approximate 10 mL of physiological saline with a disposable sonde for oral administration for rat, which was attached to 50 mL syringe (Terumo), and the sonde was inserted to 8 cm from anus.
The test compound or vehicle was administered to animals before 30 minutes and after 8 hours of the colitis induction, at each time half of a dairy dose was administered.
After 24 hours of colitis induction, all colons which from anus to cecum, were removed, the content was washed away with saline solution. After trimming of the washed colon, the colon was cut at 9 cm from anus, wiped out the solution, and weighed with electronic measure. Then the injured area (mm^2) of dissected colon was measured by image analysis.
N-hydroxy-5-hydroxy-2 (S)-methyl-4(S)—(4-phenoxybenzoyl)aminopentanamide (compound (1)) was used as a test compound. Compound (1) was administered to animals at doses of 0.3 or 3 mg/kg/day. […]

The next series relates to rat. The series is described as follows: Single oral administration toxicity to rat. How it is done:
The toxicity of the compounds of the present invention is very low and therefore, the compounds may be considered safe for pharmaceutical use. For example, a minimum of lethal dose of the compound (2) by single oral administration to rat was 2000 mg/kg.

In series [2] the test system is TNBS-induced colitis in male SD (CD) IGS rats. The series is described as follows: TNBS-induced colitis model. The settings on record: rat, 1, 3 and 10 mg/kg/day, three days after TNBS induction. How it is done: Male SD (CD) IGS rats (7 weeks old) were anesthetized with sodium pentobarbital. A flexible sonde for oral administration was inserted to 8 cm from the anus. Colitis was induced by intracolonic instillation of 50 mg of 2,4,6-trinitrobenzenesulfonic acid (TNBS) dissolved in 0.25 mL of 20% ethanol, and the anus was plugged and leaved for 2 hours. Test compound was administered at 30 minutes before and 8 hours after the TNBS induction, since the next day of TNBS induction they were administered half of a dairy dose at each time, twice daily in the morning and the evening. Three days later the animals were sacrificed with bleeding under ether anesthetization. All colons were removed, the contents was washed out with saline solution, and then measured the length. After the trimming of the colons, 9 cm segment from the anus was obtained, the water was removed on the paper, and the wet weight was measured with electric scale.
N-hydroxy-5-ethoxymethyloxy-2 (S)-methyl-4(S)— (4-phenoxylbenzoil)aminopentanamide (compound (2)) was used as a test compound. FIG. 3 and FIG. 4 show the effects of compound (2) at the doses of 1, 3 and 10 mg/kg/day on the length and the wet weight of colons respectively.

The structures appear in SMILES notation.

On to `C[C@@H](C[C@@H](CO)NC(=O)c1ccc(Oc2ccccc2)cc1)C(=O)NO` [compound (1), N-hydroxy-5-hydroxy-2 (S)-methyl-4(S)—(4-phenoxybenzoyl)aminopentanamide], for which the injured area entry in series [1] (FIG. 1) was “suppressive tendency to the injured area”. Also, the “increase in intestine edema (wet weight of colon)” value in series [1] (FIG. 2) was “suppressed the increase in intestine edema”.

As to `CCOCOC[C@H](C[C@H](C)C(=O)NO)NC(=O)c1ccc(Oc2ccccc2)cc1` [compound (2), N-hydroxy-5-ethoxymethyloxy-2 (S)-methyl-4(S)— (4-phenoxylbenzoil)aminopentanamide], the “minimum of lethal dose” value with rat is 2000 mg/kg. The “shrinkage of colon (length of all colons)” value in series [2] (FIG. 3) is recorded as “suppressed the shrinkage of colon”. The “increase in intestine edema (wet weight of colon)” value in series [2] (FIG. 4) was “suppressed the shrinkage of colon and the increase in intestine edema”.
